According to ChEMBL document CHEMBL5506027, “Discovery of a Novel and Potent Cyclin-Dependent Kinase 8/19 (CDK8/19) Inhibitor for the Treatment of Cancer” (J Med Chem, 2024):
Blank lines part the entries; values can stand above or below the compound they belong to.

Experiments:
[1] = target: CDK3/Cyclin E (Homo sapiens) (UniProt P24864+Q00526); test: Inhibition of CDK3/cyclinE1 (unknown origin) at 1 uM by luminescence based assay relative to control; assay type: protein-complex assay
MDA-MB-231 = test: Inhibition of cell growth in human MDA-MB-231 cells; assay type: functional, cell-based
[2] = Cmax in dog at 5 mg/kg, po measured upto 24 hrs by LC-MS/MS analysis; assay type: ADME, organism-based, Canis lupus familiaris; conditions: in vivo
[3] = AUC(0 to 24 hrs) in dog at 5 mg/kg, po measured upto 24 hrs by LC-MS/MS analysis; assay type: ADME, organism-based, Canis lupus familiaris; conditions: in vivo
Homo sapiens = species on record: Homo sapiens; test: Inhibition of CDK1/CyclinA2 (unknown origin) at 1 uM by luminescence based assay relative to control
[4] = target: CDK7/Cyclin H/MNAT1 (Homo sapiens) (UniProt P51946+P50613+P51948); test: Inhibition of CDK7/cyclinH/MAT1 (unknown origin) at 1 uM by luminescence based assay relative to control; assay type: protein-complex assay
[5] = Tmax in mouse at 30 mg/kg, po measured upto 24 hrs by LC-MS/MS analysis; assay type: ADME, organism-based; conditions: in vivo
[6] = target: CDK6/cyclin D3 (Homo sapiens) (UniProt P30281+Q00534); test: Inhibition of CDK6/cyclinD3 (unknown origin) at 1 uM by luminescence based assay relative to control; assay type: protein-complex assay
[7] = Tmax in rat at 10 mg/kg, po measured upto 24 hrs by LC-MS/MS analysis; assay type: ADME, organism-based; conditions: in vivo
[8] = AUC(0 to 24 hrs) in mouse at 30 mg/kg, po measured upto 24 hrs by LC-MS/MS analysis; assay type: ADME, organism-based; conditions: in vivo
[9] = target: Signal transducer and activator of transcription 1-alpha/beta (Homo sapiens) (UniProt P42224); test: Induction of STAT1 (unknown origin) phosphorylation at Ser727 residues by Western blotting analysis; conditions: filed as activator, dose 0.0032-10 µM
[10] = AUC(0 to 24 hrs) in monkey at 5 mg/kg, po measured upto 24 hrs by LC-MS/MS analysis; assay type: ADME, organism-based, Macaca mulatta; conditions: rhesus monkey, in vivo
Z-138 = test: Antitumor activity against human Z138 cells xenografted in po dosed CB17 SCID mouse assessed as tumor growth inhibition administered once daily for 21 days; assay type: functional, organism-based; conditions: dose 2.5-5 mg/kg, time 21.0 day
[11] = AUC(0 to 24 hrs) in rat at 10 mg/kg, po measured upto 24 hrs by LC-MS/MS analysis; assay type: ADME, organism-based; conditions: in vivo
[12] = target: CDK1/Cyclin E (Homo sapiens) (UniProt P06493+P24864); test: Inhibition of CDK1/cyclinE1 (unknown origin) at 1 uM by luminescence based assay relative to control; assay type: protein-complex assay
[13] = target: CDK4/Cyclin D3 (Homo sapiens) (UniProt P11802+P30281); test: Inhibition of CDK4/cyclinD3 (unknown origin) at 1 uM by luminescence based assay relative to control; assay type: protein-complex assay
[14] = Cmax in monkey at 5 mg/kg, po measured upto 24 hrs by LC-MS/MS analysis; assay type: ADME, organism-based, Macaca mulatta; conditions: rhesus monkey, in vivo
CDK8/Cyclin C = CDK8/Cyclin C (Homo sapiens, UniProt P49336); test: Displacement of tracer 236 from CDK8/cyclin C (unknown origin) preincubated for 15 mins followed by tracer addition and measured after 60 mins by FRET based lanthascreen assay; assay type: protein-complex assay
[15] = Tmax in dog at 5 mg/kg, po measured upto 24 hrs by LC-MS/MS analysis; assay type: ADME, organism-based, Canis lupus familiaris; conditions: in vivo
MV4-11 [16] = test: Potency index, ratio of RVU120 IC50 to test compound IC50 for antiproliferative activity against human MV4-11 cells; assay type: functional
[17] = Clearance in monkey at 1 mg/kg, iv measured upto 24 hrs by LC-MS/MS anlaysis; assay type: ADME, organism-based, Macaca mulatta; conditions: rhesus monkey, in vivo
[18] = target: Cyclin-Y/Cyclin-dependent kinase 16 (Homo sapiens) (UniProt Q00536+Q8ND76); test: Inhibition of CDK16/cyclinY (unknown origin) at 1 uM by luminescence based assay relative to control; assay type: protein-complex assay
[19] = Oral bioavailability in rat at 10 mg/kg measured upto 24 hrs by LC-MS/MS analysis; assay type: ADME, organism-based; conditions: in vivo
[20] = Dose normalized AUC in monkey at 5 mg/kg, po measured upto 24 hrs by LC-MS/MS analysis; assay type: ADME, organism-based, Macaca mulatta; conditions: rhesus monkey, in vivo
[21] = target: Cyclin-dependent kinase 13/Cyclin-K (Homo sapiens) (UniProt Q14004+O75909); test: Inhibition of CDK13/cyclinK (unknown origin) at 1 uM by luminescence based assay relative to control; assay type: protein-complex assay
[22] = Dose normalized AUC in rat at 10 mg/kg, po measured upto 24 hrs by LC-MS/MS analysis; assay type: ADME, organism-based; conditions: in vivo
MV4-11 [23] = test: Antitumor activity against human MV4-11 cells xenografted in BALB/c nude mouse assessed as tumor growth inhibition at 10 mg/kg, po qd and measured twice a week for 3 weeks; assay type: functional; conditions: MV4-11, 504 h, read-out: TGI
[24] = target: Cyclin-dependent kinase 5/CDK5 activator 1 (Homo sapiens) (UniProt Q00535+Q15078); test: Inhibition of CDK5/p25NCK (unknown origin) at 1 uM by luminescence based assay relative to control; assay type: protein-complex assay
MDA-MB-468 = test: Synergistic antitumor activity against human MDA-MB-468 cells xenografted in BALB/c nude mouse assessed as tumor growth inhibition at 3 mg/kg, ip qd and measured twice a week for 3 weeks in presence of carboplatin; assay type: functional; conditions: MDA-MB-468, 504 h, read-out: TGI
MV4-11 [25] = test: Antitumor activity against human MV4-11 cells xenografted in BALB/c nude mouse assessed as tumor growth inhibition at 3 mg/kg, po qd and measured twice a week for 3 weeks; assay type: functional; conditions: MV4-11, 504 h, read-out: TGI
[26] = Oral bioavailability in dog at 5 mg/kg measured upto 24 hrs by LC-MS/MS analysis; assay type: ADME, organism-based, Canis lupus familiaris; conditions: in vivo
[27] = Toxicity in CB17 SCID mouse xenografted with human Z138 cells assessed as change in body weight at 2.5 to 5 mg/kg, po qd for 3 weeks in presence of rituximab; assay type: organism-based; conditions: in vivo, 504 h, dose 2.5-5 mg/kg
[28] = target: CDK12/Cyclin K (Homo sapiens) (UniProt O75909+Q9NYV4); test: Inhibition of CDK12/cyclinK (unknown origin) at 1 uM by luminescence based assay relative to control; assay type: protein-complex assay
[29] = Cmax in rat at 5 mg/kg, po measured upto 24 hrs by LC-MS/MS analysis; assay type: ADME, organism-based; conditions: in vivo
[30] = Oral bioavailability in rat at 5 mg/kg measured upto 24 hrs by LC-MS/MS analysis; assay type: ADME, organism-based; conditions: in vivo
[31] = Dose normalized AUC in mouse at 5 mg/kg, po measured upto 24 hrs by LC-MS/MS analysis; assay type: ADME, organism-based; conditions: in vivo
[32] = Tmax in rat at 5 mg/kg, po measured upto 24 hrs by LC-MS/MS analysis; assay type: ADME, organism-based; conditions: in vivo
[33] = Selectivity ratio of IC50 for CDK5/p35NCK (unknown origin) to IC50 for CDK8/Cyclin C (unknown origin)
[34] = AUC(0 to 24 hrs) in dog at 3 mg/kg, po measured upto 24 hrs by LC-MS/MS analysis; assay type: ADME, organism-based, Canis lupus familiaris; conditions: in vivo
[35] = Selectivity ratio of IC50 for CDK2/CyclinA2 (unknown origin) to IC50 for CDK8/Cyclin C (unknown origin)

Signal transducer and activator of transcription 1-alpha/beta (Homo sapiens), sequence (P42224 whole entry): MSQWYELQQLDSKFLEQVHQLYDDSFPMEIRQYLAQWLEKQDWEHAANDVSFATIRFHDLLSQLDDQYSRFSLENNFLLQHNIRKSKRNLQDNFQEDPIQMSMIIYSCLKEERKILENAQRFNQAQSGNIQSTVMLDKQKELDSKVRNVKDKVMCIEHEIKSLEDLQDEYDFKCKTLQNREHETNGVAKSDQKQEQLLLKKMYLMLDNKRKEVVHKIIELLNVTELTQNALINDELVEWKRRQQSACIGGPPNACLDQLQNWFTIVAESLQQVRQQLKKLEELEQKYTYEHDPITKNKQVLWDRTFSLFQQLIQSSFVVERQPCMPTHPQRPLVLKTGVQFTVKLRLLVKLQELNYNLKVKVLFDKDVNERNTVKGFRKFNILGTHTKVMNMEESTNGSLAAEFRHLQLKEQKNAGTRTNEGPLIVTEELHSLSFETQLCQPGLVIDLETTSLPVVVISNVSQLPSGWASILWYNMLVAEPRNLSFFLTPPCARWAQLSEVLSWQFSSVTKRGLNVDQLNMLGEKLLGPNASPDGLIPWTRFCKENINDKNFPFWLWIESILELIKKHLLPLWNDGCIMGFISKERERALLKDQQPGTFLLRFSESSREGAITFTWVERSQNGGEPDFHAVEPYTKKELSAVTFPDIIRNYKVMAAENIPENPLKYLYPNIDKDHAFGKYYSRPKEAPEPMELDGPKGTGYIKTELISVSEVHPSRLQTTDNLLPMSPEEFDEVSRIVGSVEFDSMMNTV
CDK8/Cyclin C, sequence (P49336 whole entry): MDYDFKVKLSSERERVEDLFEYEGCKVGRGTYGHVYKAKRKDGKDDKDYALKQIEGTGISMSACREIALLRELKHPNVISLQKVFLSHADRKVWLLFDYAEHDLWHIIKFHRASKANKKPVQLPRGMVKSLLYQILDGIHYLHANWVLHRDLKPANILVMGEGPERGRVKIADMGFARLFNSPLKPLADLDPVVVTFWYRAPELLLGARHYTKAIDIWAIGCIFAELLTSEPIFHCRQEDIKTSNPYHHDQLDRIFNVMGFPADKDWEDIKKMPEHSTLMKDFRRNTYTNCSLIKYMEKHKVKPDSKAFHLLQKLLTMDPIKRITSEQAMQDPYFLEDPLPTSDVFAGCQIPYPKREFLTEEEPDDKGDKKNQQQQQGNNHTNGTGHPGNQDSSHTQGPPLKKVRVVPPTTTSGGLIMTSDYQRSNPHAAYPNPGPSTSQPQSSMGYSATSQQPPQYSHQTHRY
CDK8/Cyclin C, sequence (P24863 whole entry, further chain): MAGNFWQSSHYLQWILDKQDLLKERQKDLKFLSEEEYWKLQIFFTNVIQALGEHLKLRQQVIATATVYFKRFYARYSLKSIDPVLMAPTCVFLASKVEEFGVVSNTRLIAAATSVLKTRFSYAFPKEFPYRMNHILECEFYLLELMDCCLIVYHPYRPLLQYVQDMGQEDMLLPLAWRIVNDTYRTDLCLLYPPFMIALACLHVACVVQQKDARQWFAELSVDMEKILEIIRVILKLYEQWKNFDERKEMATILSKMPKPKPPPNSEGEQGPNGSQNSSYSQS
Cyclin-dependent kinase 5/CDK5 activator 1 (Homo sapiens), sequence (Q00535 whole entry): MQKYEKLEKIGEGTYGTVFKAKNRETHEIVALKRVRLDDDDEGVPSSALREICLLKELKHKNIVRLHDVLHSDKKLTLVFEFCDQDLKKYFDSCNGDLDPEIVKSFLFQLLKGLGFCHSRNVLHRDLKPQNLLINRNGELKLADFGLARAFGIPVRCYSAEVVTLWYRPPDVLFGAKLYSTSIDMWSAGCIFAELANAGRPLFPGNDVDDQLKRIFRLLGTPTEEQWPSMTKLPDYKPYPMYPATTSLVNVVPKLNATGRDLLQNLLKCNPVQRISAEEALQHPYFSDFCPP
Cyclin-dependent kinase 5/CDK5 activator 1 (Homo sapiens), sequence (Q15078 99-307 partner limits assumed): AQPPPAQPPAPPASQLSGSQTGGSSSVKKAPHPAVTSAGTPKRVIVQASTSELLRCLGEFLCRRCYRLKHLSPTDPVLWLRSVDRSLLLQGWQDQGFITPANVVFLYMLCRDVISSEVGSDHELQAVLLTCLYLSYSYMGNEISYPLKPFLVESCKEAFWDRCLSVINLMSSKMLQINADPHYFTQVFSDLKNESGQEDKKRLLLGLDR
CDK1/Cyclin E (Homo sapiens), sequence (P06493 whole entry, looked up): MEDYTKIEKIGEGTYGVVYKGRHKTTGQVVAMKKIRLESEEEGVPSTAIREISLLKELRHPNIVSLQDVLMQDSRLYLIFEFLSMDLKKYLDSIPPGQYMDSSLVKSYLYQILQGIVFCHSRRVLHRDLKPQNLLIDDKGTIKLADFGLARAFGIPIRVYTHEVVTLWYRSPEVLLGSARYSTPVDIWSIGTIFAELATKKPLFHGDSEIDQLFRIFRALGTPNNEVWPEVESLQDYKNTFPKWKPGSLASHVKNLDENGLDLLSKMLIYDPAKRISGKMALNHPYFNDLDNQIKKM
CDK1/Cyclin E (Homo sapiens), sequence (P24864 whole entry, looked up): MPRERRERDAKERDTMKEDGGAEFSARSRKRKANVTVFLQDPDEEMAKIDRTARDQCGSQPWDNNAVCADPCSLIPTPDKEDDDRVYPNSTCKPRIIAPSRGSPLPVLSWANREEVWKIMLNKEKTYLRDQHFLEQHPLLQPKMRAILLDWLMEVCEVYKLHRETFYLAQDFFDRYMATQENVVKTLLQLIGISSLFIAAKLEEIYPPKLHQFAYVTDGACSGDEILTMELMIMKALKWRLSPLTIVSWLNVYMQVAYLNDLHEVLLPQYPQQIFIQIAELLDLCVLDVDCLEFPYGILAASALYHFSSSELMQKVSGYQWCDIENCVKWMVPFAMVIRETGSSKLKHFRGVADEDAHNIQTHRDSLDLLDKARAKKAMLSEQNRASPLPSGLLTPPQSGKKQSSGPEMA
Cyclin-dependent kinase 13/Cyclin-K (Homo sapiens), sequence (O75909 whole entry, looked up): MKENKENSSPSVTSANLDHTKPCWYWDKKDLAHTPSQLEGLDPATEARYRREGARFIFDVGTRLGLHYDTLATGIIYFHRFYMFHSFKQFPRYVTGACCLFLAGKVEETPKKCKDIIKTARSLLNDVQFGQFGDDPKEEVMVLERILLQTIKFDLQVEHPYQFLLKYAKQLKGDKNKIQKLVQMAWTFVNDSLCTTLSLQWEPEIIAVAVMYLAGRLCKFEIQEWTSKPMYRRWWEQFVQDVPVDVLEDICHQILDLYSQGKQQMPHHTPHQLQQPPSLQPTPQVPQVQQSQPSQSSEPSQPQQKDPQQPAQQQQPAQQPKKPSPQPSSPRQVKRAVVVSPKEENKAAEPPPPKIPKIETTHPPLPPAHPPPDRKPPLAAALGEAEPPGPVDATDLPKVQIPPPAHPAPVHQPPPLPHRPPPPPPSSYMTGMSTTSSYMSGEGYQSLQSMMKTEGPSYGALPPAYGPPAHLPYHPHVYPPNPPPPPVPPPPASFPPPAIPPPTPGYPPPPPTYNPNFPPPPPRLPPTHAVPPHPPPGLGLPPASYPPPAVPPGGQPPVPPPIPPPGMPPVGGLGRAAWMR
Cyclin-dependent kinase 13/Cyclin-K (Homo sapiens), sequence (Q14004 whole entry, looked up): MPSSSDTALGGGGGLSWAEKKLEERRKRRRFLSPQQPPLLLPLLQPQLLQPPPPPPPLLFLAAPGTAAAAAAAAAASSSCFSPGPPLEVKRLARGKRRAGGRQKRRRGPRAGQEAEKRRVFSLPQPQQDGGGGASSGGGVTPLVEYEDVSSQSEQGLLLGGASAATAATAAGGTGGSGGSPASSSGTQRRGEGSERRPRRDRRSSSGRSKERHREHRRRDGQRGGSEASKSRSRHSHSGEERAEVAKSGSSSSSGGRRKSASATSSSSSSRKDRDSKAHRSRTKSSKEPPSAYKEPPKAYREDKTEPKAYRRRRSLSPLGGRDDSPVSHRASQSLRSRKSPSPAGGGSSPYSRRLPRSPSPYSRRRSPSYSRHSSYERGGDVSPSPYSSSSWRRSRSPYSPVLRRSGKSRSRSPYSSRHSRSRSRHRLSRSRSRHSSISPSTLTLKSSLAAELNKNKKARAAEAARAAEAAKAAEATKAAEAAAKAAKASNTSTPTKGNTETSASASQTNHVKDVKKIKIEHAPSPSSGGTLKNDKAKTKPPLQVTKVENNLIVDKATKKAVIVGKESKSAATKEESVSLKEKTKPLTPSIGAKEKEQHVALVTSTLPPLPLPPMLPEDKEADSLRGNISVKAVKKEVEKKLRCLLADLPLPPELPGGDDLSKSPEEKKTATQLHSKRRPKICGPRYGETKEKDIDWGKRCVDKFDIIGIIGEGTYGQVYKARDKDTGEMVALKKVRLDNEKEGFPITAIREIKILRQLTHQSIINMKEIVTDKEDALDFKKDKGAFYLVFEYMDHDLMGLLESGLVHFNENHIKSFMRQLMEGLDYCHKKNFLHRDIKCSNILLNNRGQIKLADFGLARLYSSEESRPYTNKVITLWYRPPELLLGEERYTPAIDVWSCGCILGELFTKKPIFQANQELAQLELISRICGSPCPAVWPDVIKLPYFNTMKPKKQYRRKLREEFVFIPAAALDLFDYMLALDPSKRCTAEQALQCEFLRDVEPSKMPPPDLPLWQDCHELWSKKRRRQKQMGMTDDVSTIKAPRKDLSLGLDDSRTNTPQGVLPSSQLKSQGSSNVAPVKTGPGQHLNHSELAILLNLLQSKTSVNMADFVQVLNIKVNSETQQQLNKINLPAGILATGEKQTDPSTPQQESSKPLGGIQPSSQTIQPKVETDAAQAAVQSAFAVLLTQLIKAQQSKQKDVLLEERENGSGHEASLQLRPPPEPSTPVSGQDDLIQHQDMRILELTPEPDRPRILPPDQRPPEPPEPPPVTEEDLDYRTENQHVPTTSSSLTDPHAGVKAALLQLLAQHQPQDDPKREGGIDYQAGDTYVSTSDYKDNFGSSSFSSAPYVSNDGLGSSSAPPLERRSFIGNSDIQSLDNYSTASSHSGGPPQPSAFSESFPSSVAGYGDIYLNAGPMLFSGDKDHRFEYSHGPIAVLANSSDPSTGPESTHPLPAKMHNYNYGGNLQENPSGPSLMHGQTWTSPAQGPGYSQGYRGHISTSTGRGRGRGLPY

inhibition [1]: 45.4%
IC50 (MDA-MB-231): 40 nM
Cmax [2]: 475 ng/mL
AUC(0-t) at 24 h [3]: 5590 ng·h/mL
inhibition (Homo sapiens): 76.2%
inhibition [4]: 74.4%
Tmax [5]: 1.5 h
inhibition [6]: 2.33%
Tmax [7]: 2 h
AUC(0-t) at 24 h [8]: 23900 ng·h/mL
Activity [9]: Dose-Dependent Effect
AUC(0-t) at 24 h [10]: 12500 ng·h/mL
AUC(0-t) at 24 h [11]: 1900 ng·h/mL
inhibition [12]: 63.4%
inhibition [13]: 58%
Cmax [14]: 1100 ng/mL
IC50 (CDK8/Cyclin C): 2.1 nM
Tmax [15]: 2 h
clearance [17]: 13 mL/min/kg
inhibition [18]: 64.1%
bioavailability [19]: 89%
AUC/dose [20]: 2503 ng·h/mL
inhibition [21]: 57.4%
AUC/dose [22]: 190 ng·h/mL
inhibition [24]: 88.3%
bioavailability [26]: 85%
inhibition [28]: 69.6%
SMILES: FC(F)c1c(Br)c(Br)cc2c1nc(N1CCNCC1)n2C1CCOCC1
Activity (Z-138): Dose-Dependent Effect
Ratio IC50 (MV4-11 [16]): 7
inhibition in vivo at 10 mg/kg (MV4-11 [23]): 36%
inhibition in vivo at 3 mg/kg (MDA-MB-468): 66%
inhibition in vivo at 3 mg/kg (MV4-11 [25]): 29%
Activity [27]: Non-Toxic

Cmax [29]: 12 ng/mL
bioavailability [30]: 20%
AUC/dose [31]: 270 ng·h/mL
Tmax [32]: 1.67 h
Ratio IC50 [33]: 0.1
AUC(0-t) at 24 h [34]: 2060 ng·h/mL
Ratio IC50 [35]: 0.3
SMILES: Cc1c(Br)c(Br)c2c3c1nc(N1CCNCC1)n3CCC2 [SEL-120 FREE BASE]
